Reference: patent publication US20110097741A1, “PARTIAL T1R2 NUCLEIC ACID SEQUENCE, RECEPTOR PROTEIN AND ITS USE IN SCREENING ASSAYS” (priority 2006, published 2011)

What was measured:
[1] = tested on: host cells expressing only the G16gust44 chimeric G-protein; experiment: Fluo-4 calcium assay in negative control cells expressing G16gust44 only; format: cell-based, human
Method: As a negative control, mock transfected cells were exposed to the same concentration of ligand and the concentration of calcium traces not corresponding to a signal was determined.
As a result of said evalution, it was determined that when these cell lines are exposed to perillartine, many of cell clones respond to this stimulus with a significant increase in fluorescence which is greater than 10-times of the signal compared to the signal of the negative control (cells that express solely G16gust44 promiscuous G-protein but not T1R2-TMD).
The signals elicited by the test agents in cells that stably express G16gust44 and T1R2-TMD containing cells (formed as described in example 3) were compared to the signals obtained in cells that stably express G16gust44 and the T1R2/T1R3 heterodimer (formed as described in example 4), and as a negative control, cells that stably express G16gust44 were used.

T1R2-TMD = target: T1, T1R2-TMD (Homo sapiens, UniProt Q8TE23); experiment: Fluo-4 calcium assay in HEK293 cells stably expressing G16gust44 and T1R2-TMD; format: cell-based
T1 construct: first 45 amino acids of rat somatostatin type 3 receptor plus linker) (N); expressed in transfected cells; host or cells: HEK-293-T-Rex based cell line stably expressing G16gust44
T1 sequence (Q8TE23 564-839): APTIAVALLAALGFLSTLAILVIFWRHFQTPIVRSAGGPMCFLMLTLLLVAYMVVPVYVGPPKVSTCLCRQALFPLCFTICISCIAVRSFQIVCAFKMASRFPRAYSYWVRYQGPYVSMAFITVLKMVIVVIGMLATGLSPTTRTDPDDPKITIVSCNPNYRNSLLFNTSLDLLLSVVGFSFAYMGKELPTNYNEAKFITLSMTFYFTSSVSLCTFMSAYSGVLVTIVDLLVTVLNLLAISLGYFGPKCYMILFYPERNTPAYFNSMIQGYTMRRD
From the text: (§1) All examples use the human receptors.
Fluo-4 is a fluorescent indicator for intracellular calcium and allows to determine changes in the calcium concentration, in particular an increase in response to receptor activation occurring after ligand addition (for example perillartine or methyl chavicol).
HEK293 cells stably expressing G alpha 16 gustducin 44 and transfected with T1R2-TMD as described in example 3 were used as host cells.
Black, clear-bottom 96-well plates were used for all assays. They were seeded the day before with 8500 transfected cells per well and maintained at 37° C. overnight in a growth medium appropriate for the cells used. For HEK293 cells, Dulbecco's Modified Eagle medium containing high glucose, L-glutamine, pyroxidine hydrochloride, and supplemented with 10% fetal bovine serum was used for growth and maintenance of the HEK293 cells.
At the time of the assay, the growth medium was discarded and cells were incubated for 1 hour (at 37° C. in the dark) with 50 μl of a calcium assay solution consisting of 1.5 μM Fluo-4 AM (Molecular Probes™, Invitrogen, US) and 2.5 μM probenicid (Sigma-Aldrich) dissolved in a C1 buffer solution. C1 buffer solution contains 130 mM NaCl, 5 mM KCl, 10 mM Hepes, 2 mM CaCl2 and 10 mM glucose (pH 7.4).
After the initial 1 hour loading period, the plates were washed 5 times with 100 μl per well of C1 buffer using an automated plate washer (BioTek) and after washing, the plate was further incubated for 30 minutes at room temperature in the dark to allow for complete de-esterification of the Fluo-4-AM. […]
(§2) For assay reading, the plate was placed in a FLIPR (fluorescence imaging plate reader (FLIPR-Tetra, Molecular Devices)), and receptor activation was initiated following addition of 20 μl of a 10× concentrated ligand stock solution.
(§3) Fluorescence was continuously monitored for 15 seconds prior to ligand addition and for 105 seconds after ligand addition (45-105 sec may be sufficient). […]
(§4) Fluorescence Increase=Maximum Fluorescence−baseline fluorescence,
wherein the baseline fluorescence represents the mean fluorescence calculated for the first 10 to 15 seconds prior to ligand addition.
As a negative control, mock transfected cells were exposed to the same concentration of ligand and the concentration of calcium traces not corresponding to a signal was determined. […]
The data was calculated as described in example 1 and illustrated the net increase in fluorescence over baseline following stimulation of the cells with 50 μM perillartine. […]
HEK293T cells that stably express G16gust44 and T1R2-TMD (formed as described in example 3) are loaded with the calcium dye Fluo-4, and their response to perillartine is measured by using fluorescent calcium signals as described in example 1. […]

T1R2/T1R3 heterodimer = target: T2, T1R2/T1R3 heterodimer (Homo sapiens, UniProt Q8TE23); experiment: Fluo-4 calcium assay in cells stably expressing G16gust44 and the T1R2/T1R3 heterodimer; format: cell-based; settings: 4-parameter logistic fit
T2 construct: expressed in transfected cells; host or cells: HEK-293-T-Rex based cell line stably expressing G16gust44
T2 sequence (Q8TE23 20-839): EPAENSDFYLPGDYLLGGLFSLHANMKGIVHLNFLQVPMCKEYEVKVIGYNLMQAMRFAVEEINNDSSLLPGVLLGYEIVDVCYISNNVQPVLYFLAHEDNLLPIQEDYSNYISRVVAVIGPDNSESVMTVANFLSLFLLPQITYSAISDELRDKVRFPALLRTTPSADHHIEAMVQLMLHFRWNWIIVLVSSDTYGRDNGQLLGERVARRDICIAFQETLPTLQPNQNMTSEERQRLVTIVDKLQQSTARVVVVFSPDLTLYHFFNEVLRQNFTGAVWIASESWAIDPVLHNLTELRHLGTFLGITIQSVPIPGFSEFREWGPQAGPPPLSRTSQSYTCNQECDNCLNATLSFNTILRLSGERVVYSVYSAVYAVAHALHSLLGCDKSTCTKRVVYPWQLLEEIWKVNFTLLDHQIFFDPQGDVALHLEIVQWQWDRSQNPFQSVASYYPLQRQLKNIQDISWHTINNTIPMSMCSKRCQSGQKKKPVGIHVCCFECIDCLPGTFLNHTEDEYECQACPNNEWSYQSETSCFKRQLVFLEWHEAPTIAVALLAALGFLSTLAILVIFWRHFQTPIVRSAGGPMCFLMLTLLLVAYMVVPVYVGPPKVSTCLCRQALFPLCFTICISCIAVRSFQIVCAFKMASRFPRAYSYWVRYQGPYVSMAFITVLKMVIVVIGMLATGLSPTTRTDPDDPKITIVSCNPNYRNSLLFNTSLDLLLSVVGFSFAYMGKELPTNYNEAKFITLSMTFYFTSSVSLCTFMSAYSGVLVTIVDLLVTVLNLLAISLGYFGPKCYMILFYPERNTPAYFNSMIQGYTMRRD
T2 sequence (Q7RTX0 21-852 C757R partner): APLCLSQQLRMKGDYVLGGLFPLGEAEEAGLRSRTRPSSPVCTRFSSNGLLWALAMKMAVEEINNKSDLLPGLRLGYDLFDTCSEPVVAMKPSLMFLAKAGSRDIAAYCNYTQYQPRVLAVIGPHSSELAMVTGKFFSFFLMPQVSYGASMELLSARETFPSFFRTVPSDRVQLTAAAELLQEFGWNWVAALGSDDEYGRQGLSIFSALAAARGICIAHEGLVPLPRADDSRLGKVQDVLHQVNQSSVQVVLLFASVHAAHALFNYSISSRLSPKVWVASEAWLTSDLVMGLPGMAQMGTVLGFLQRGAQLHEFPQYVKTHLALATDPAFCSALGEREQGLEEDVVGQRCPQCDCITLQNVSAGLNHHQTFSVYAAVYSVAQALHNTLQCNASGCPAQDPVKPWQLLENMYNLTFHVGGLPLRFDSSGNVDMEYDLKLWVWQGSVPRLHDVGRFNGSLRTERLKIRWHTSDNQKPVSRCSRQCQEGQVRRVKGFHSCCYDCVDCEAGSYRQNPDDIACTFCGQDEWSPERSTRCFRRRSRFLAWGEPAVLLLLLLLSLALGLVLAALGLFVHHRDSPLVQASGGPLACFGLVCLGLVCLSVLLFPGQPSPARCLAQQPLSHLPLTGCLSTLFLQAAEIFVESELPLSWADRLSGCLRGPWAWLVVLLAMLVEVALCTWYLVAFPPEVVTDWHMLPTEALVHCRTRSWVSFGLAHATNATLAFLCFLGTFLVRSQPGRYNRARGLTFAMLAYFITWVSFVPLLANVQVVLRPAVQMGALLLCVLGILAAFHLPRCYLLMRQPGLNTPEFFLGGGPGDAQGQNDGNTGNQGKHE
Method: as §1
At the time of the assay, the growth medium was discarded and cells were incubated for 1 hour (at 37° C. in the dark) with 50 μl of a calcium assay solution consisting of 1.5 μM Fluo-4 AM (Molecular Probes™, Invitrogen, US) and 2.5 μM probenicid (Sigma-Aldrich) dissolved in a C1 buffer solution. C1 buffer solution contains 130 mM NaCl, 5 mM KCl, 10 mM Hepes, 2 mM CaCl2 and 10 mM glucose (pH 7.4). […]
as §2, §3, §4
wherein the baseline fluorescence represents the mean fluorescence calculated for the first 10 to 15 seconds prior to ligand addition. […]
Resistant colonies were expanded, and identified as containing the T1R2/T1R3 sweet heterodimer by their response to various sweetener compounds including sucrose, sucralose, aspartame and acesulfame K, which was determined via automated fluorimetric imaging on the FLIPR-Tetra instrumentation (Molecular Devices) using the methods described in example 1. […]

C=CCc1ccc(OC)cc1 [Methyl chavicol]
Negative control [RFU] ([1]; 100 micromolar, cells stably expressing G16gust44 only, average of two replicates): 732.195 RFU

C=C(C)[C@@H]1CC=C(/C=N/O)CC1 [perillartine]
calcium signaling upon stimulation (T1R2-TMD; 50 μM, cells stably expressing human T1R2-TMD, not in negative control): Significant increases | AVERAGE [RFU] (net increase in fluorescence over baseline) (T1R2-TMD; T1R2-TMD/G16gust44 cells, 50 μM perillartine, no tetracycline induction): 973.06 RFU | EC50 (T1R2-TMD; T1R2-TMD, 4-parameter logistic fit, doses 0.1 to 200 micromolar): 6.2 µM | increase in fluorescence, signal compared to the signal of the negative control (T1R2-TMD; many cell clones, 50 μM perillartine, absence of tetracycline induction, vs cells expressing solely G16gust44): greater than 10 times | EC50 (T1R2/T1R3 heterodimer): 3.5 µM | AVERAGE [RFU] (net increase in fluorescence over baseline) ([1]; G16gust44 ONLY (neg. control) cells, 50 μM perillartine): 73.78 RFU
